# Assay results taken from patent US8865653B2, “Method of treatment for immunogenic treatment resistant cancer” (Institut Gustave Roussy, priority 2010, dated 2014).
# What was measured:
# MCA205 tumors = experiment: Gene expression assays in tumors (TaqMan RT-PCR) 8 days after DX; assay type: in vivo, mice; settings: 8 days post-treatment, quantitative RT-PCR
# Procedure: Whole RNA was extracted using RNeasy Mini Kit, QIAGEN from pieces of tumor homogenates. 5 μg of RNA from each sample were reverse-transcribed using Quantitect Reverse Transcription Kit (QIAGEN). Gene expression assays were performed with TaqMan® 96 well Plates customized to test cytokines, chemokines as well as transcription factors using StepOnePlus™ Real-Time PCR System. PPIA was chosen as the endogenous control to perform normalization between different samples.
# [1] = tested on: tumor infiltrating lymphocytes (TILs) of MCA205 tumors; experiment: Tumor dissection and flow cytometry of TILs (IFN-γ, IL-17); assay type: in vivo, mice
# Procedure: Tumor burdens were carefully removed, cut into small pieces with scissors within digesting buffer (400 U/ml Collagenase IV and 150 U/ml DNase I in RPMI1640) and incubated for 30 min at 37° C. Single cell suspension was obtained by grinding the digested tissue and filtering through 70 μM cell strainer. […] LIVE/DEAD Fixable Dead Cell Stain Kit was used to distinguish live and dead cells. For intracellular staining, freshly isolated cells were treated with, 50 ng/ml PMA, 1 μg/ml ionomycin and Golgi-stop (BD Pharmingen), 4 hrs, 37° C. in RPMI containing 2% mouse serum (Janvier, France). Cells were then washed with PBS and stained with anti-IFN-γ (PE-cy7) and anti-IL-17 (PE) using BD Cytofix/Cytoperm™ Kit following the instructions.
# CT26 colon cancer = experiment: Anthracycline chemotherapy of established CT26 colon cancer; assay type: in vivo, mice; settings: single intratumoral injection
# Procedure: 0.8 million MCA205 or CT26 or TS/A tumor cells were inoculated subcutaneously near the thigh into C57Bl/6 (H-2^b) or BALB/c (H-2^d) mice. Anthracyclines-based chemotherapy was performed in MCA205 and CT26 models by intratumoral injecting DX (2 mM, […]) when tumors reached the size 25-40 mm^2. Radiotherapy was performed by local X-ray irradiation (10 Gy, RT250, Phillips) at the unshielded tumor area when TS/A tumor reached the size 40-60 mm^2.
# MCA 205 tumors = experiment: qRT-PCR of tumor gene expression after Doxorubicin; assay type: in vivo, mice; settings: 2 days after treatment; Mavs, Irf3, Irf1 and Tnf unchanged
# Procedure: 0.8 Million of MCA 205 has been subcutaneously implanted to C57Bl6 mice.
# Tumor samples were freshly collected, briefly washed in RPMI1640 media (GIBCO). Tissue samples were cut to a maximum thickness in any one dimension of 0.5 cm, placed in 5 volumes of RNAlater® (SIGMA ALDRICH). Samples can be stored at room temperature if processed for RNA extraction on the same day or stored at 4° C. for less than 1 month. RNA extraction from each tumor (up to 30 mg/sample) was performed using RNeasy Mini Kit (QIAGEN) following the instructions.
# Add 20 μL1 of Master mix (dN6 (3 ng/μl), dNTP (1 mM), Buffer (1×), RNAsin (40 U) Superscript® III RT (200 U)) into the processed mRNA sample. Mix was incubated at 50° C. for 1 h and then inactivated at 75° C. for 15 min.
# cDNA of each sample was diluted at 1:3 with DNase free water. For each sample, 4 μl of primer and probe TAQMAN (2×), 10 μl of assay mix (20×), 5 μl diluted cDNA were added. qRT-PCR was performed (45 cycles with standard PCR program using StepOnePlus™ system (Applied Biosystems). PPIA was used as endogenous control gene to normalize gene expression for data analysis.
# MCA205 fibrosarcoma = experiment: Chemotherapy and Dendrophilin treatment of established MCA205 tumors; assay type: in vivo, mice; settings: doxorubicin intratumorally
# Procedure: WT or loss-of-function mice were injected in the right flank with 1×10^6 of EL4 or CT26 or MCA205 cells. Mice were then randomly assigned into treatment groups of 4-6 mice each. […] Two and/or four days after chemo treatment, mice were treated with Dendrophilin or LPS (2 μg in 100 μl NaCl per mouse i.v or i.t). […] Tumor growths were monitored every 3-4 days using a caliper.
# U2OS cells = experiment: US Drug library screen: CRT-GFP, HMGB1-GFP, quinacrine; settings: 1 μM, 4 h / 24 h / 16 h
smiles,measurement,setting,value
"COc1cccc2c1C(=O)c1c(O)c3c(c(O)c1C2=O)C[C@@](O)(C(=O)CO)C[C@@H]3O[C@H]1C[C@H](N)[C@H](O)[C@H](C)O1 [DX, doxorubicin]","Eomes, Tbx21 (T-bet) and IFN-γ expression increase, DX versus PBS-treated tumors",MCA205 tumors,4-5 fold
same,increase in the proportions of IFN-γ and IL-17 producing TILs,"[1]; DX compared with PBS, flow cytometry, day 8",3 fold
same,IFN-γ production by CD8+ and CD4+ TILs and IL-17 production by γδ TILs,"[1]; MCA205, post-chemotherapy",substantially enhanced
same,tumor growth,CT26 colon cancer,significantly retarded tumor growth
same,"genes involved in viral recognition and anti-viral immune responses, RT-PCR",MCA 205 tumors,specifically up-regulated
same,antitumor effects of chemotherapy alone,MCA205 fibrosarcoma,only mild effects
same,rank in screen for exposing CRT and emitting HMGB1 and ATP,U2OS cells,"most potent in exposing CRT, and emitting HMGB1 and ATP"
